Measurements: the supplement of paper PMC10307832

Tests used:
Experiment in all cases: relative viability (nuclei count vs DMSO), 5 days (fraction); higher = more cells survive
[1] = compound: CC1=CN2C(=O)C=C(N=C2C(=C1)C(C)NC3=CC=CC=C3)N4CCOCC4 [TGX 221] + NC(=O)Nc1cc(-c2cccc(F)c2)sc1C(=O)N[C@H]1CCCNC1 [AZD7762] (partner 0.2 µM)
Summary of the method: (§1)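 Relative viability was taken as the ratio of nuclei in treated wells to nuclei in vehicle wells. Lung cancer cell lines in 1536-well plates received compounds by pin tool one day after seeding, either one drug alone or a fixed anchor-drug dose plus five library-drug doses (not always all listed) in √10 steps. Nuclei were counted on 4× images after 5 days of treatment, and values are medians of duplicate plates.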

[2] = compound: CC1=CN2C(=O)C=C(N=C2C(=C1)C(C)NC3=CC=CC=C3)N4CCOCC4 [TGX 221] + N=C(N)NC(=N)NCCc1ccccc1 [Phenformin] (partner 250 µM)
Summary of the method: as §1

[3] = compound: CC1=CN2C(=O)C=C(N=C2C(=C1)C(C)NC3=CC=CC=C3)N4CCOCC4 [TGX 221] + Cc1nc(Nc2ncc(C(=O)Nc3c(C)cccc3Cl)s2)cc(N2CCN(CCO)CC2)n1 [Dasatinib] (partner 0.075 µM)
Summary of the method: as §1

[4] = compound: O=C(CCCCCCNC(=O)c1cnc(N(c2ccccc2)c2ccccc2)nc1)NO [Ricolinostat] + Nc1ncn([C@H]2C[C@H](O)[C@@H](CO)O2)c(=O)n1 [Decitabine] (partner 2 µM)
Summary of the method: as §1

Cell Line | relative viability ([1]; first compound 0.08 µM) | relative viability ([1]; first compound 0.253 µM) | relative viability ([1]; first compound 0.8 µM) | relative viability ([1]; first compound 2.53 µM) | relative viability ([1]; first compound 8 µM) | relative viability ([2]; first compound 0.08 µM) | relative viability ([2]; first compound 0.253 µM) | relative viability ([2]; first compound 0.8 µM) | relative viability ([2]; first compound 2.53 µM) | relative viability ([2]; first compound 8 µM) | relative viability ([3]; first compound 0.08 µM) | relative viability ([3]; first compound 0.253 µM) | relative viability ([3]; first compound 0.8 µM) | relative viability ([3]; first compound 2.53 µM) | relative viability ([3]; first compound 8 µM) | relative viability ([4]; first compound 0.08 µM) | relative viability ([4]; first compound 0.253 µM) | relative viability ([4]; first compound 0.8 µM) | relative viability ([4]; first compound 2.53 µM)
NCI-H2126 | 0.943 | 0.907 | 1.04 | 0.966 | 1.15 | 0.483 | 0.487 | 0.535 | 0.515 | 0.507 | 0.512 | 0.61 | 0.615 | 0.578 | 0.585 | 0.563 | 0.555 | 0.561 | 0.481
NCI-H2170 | 0.81 | 0.825 | 0.861 | 0.871 | 0.917 | 0.421 | 0.413 | 0.464 | 0.431 | 0.362 | 0.542 | 0.48 | 0.527 | 0.519 | 0.507 | 0.471 | 0.454 | 0.452 | 0.482
NCI-H2342 | 0.421 | 0.448 | 0.496 | 0.489 | 0.524 | 0.445 | 0.57 | 0.583 | 0.559 | 0.601 | 0.286 | 0.339 | 0.314 | 0.292 | 0.299 | 0.628 | 0.719 | 0.784 | 0.718
NCI-H2347 | 0.639 | 0.61 | 0.639 | 0.583 | 0.547 | 0.427 | 0.385 | 0.389 | 0.234 | 0.213 | 0.242 | 0.318 | 0.313 | 0.244 | 0.269 | 0.626 | 0.664 | 0.585 | 0.61
NCI-H2405 | 0.706 | 0.665 | 0.724 | 0.665 | 0.547 | 0.386 | 0.405 | 0.379 | 0.44 | 0.338 | 0.235 | 0.206 | 0.22 | 0.205 | 0.179 | 0.671 | 0.749 | 0.804 | 0.797
NCI-H3122 | 0.974 | 0.925 | 1.01 | 0.994 | 0.981 | 0.366 | 0.386 | 0.396 | 0.363 | 0.366 | 0.931 | 0.83 | 0.865 | 0.794 | 0.872 | 0.388 | 0.404 | 0.443 | 0.529
PC-3 [JPC-3] | 0.689 | 0.72 | 0.817 | 0.755 | 0.758 | 0.463 | 0.459 | 0.469 | 0.47 | 0.477 | 0.893 | 0.934 | 1.02 | 0.93 | 0.925 | 0.766 | 0.736 | 0.757 | 0.758
PC-14 | 0.316 | 0.329 | 0.34 | 0.33 | 0.289 | 0.502 | 0.543 | 0.556 | 0.638 | 0.667 | 0.246 | 0.22 | 0.3 | 0.272 | 0.221 | 0.22 | 0.19 | 0.193 | 0.22
RERF-LC-KJ | 0.909 | 0.926 | 0.965 | 0.863 | 0.949 | 0.439 | 0.434 | 0.398 | 0.377 | 0.326 | 0.692 | 0.795 | 0.811 | 0.764 | 0.744 | 0.77 | 0.609 | 0.672 | 0.618
SW 900 | – | 0.598 | 0.515 | 0.444 | 0.469 | 0.572 | 0.455 | 0.473 | 0.448 | 0.525 | 0.461 | 0.444 | 0.383 | 0.39 | 0.254 | 0.517 | 0.433 | 0.368 | 0.401
